Reference: US12286442B2, “Methods and materials for increasing transcription factor eb polypeptide levels” (University of Pittsburgh—Of the Commonwealth System of …, priority 2019, dated 2025)

Key:
TFEB = assay: High content screen measuring TFEB nuclear accumulation (TFEB nuclear/cytosol ratio) in BEAS-2B cells stably expressing TFEB-EGFP; format: cell-based, human; conditions: 18 hours incubation
In short: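 BEAS-2B cells stably expressing TFEB-EGFP (~2300–2500 per well) pre-incubated 8 hours, then exposed to serially diluted compounds (DMEM low glucose, 2% FBS) for 18 hours, PFA-fixed and DAPI-stained. Imaged nuclear (DAPI mask) vs cytosolic (expanded mask) TFEB-GFP; activity = minimal concentration raising nuclear/cytosol ratio by 25%.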

BEAS-2B cells = assay: Toxicity: compound concentration needed to induce greater than 50 percent of cell loss; format: cell-based, human; conditions: 18 hours incubation
In short: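 BEAS-2B cells stably expressing TFEB-EGFP treated with serial compound dilutions for 18 h, then PFA-fixed, DAPI-stained and imaged. Toxicity scored as the concentration causing >50% cell loss, binned as ≥25 μM, <25 and >1 μM, or ≤1 μM ("+++").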

Row | Structure (SMILES) | efficacy (minimal compound concentration needed to increase TFEB nuclear/cytosol ratio by 25%) (TFEB) | toxicity (compound concentration needed to induce greater than 50 percent of cell loss) (BEAS-2B cells)
1 | CN(C)CCn1c(=O)n(-c2ccccc2)c(=O)c2ccccc21 [Compound 228] | + (“+” equals >25 μM) | + (cell loss of greater than 50 percent at a concentration that equals or is greater than 25 μM was represented as)
2 | O=c1c2ccccc2n(CCN2CCOCC2)c(=O)n1-c1ccccc1 [Compound 229] | + (“+” equals >25 μM) | + (cell loss of greater than 50 percent at a concentration that equals or is greater than 25 μM was represented as)
3 | O=C(Cn1c(=O)n(-c2ccccc2)c(=O)c2ccccc21)N1CCOCC1 [Compound 230] | + (“+” equals >25 μM) | + (cell loss of greater than 50 percent at a concentration that equals or is greater than 25 μM was represented as)
4 | CCc1ccc(-n2c(=O)c3ccc(C(=O)NCCc4ccccc4)cc3n(Cc3ccccc3C#N)c2=O)cc1 [Compound 231] | ++ (“++” equals between ≤25 μM and >1 μM) | + (cell loss of greater than 50 percent at a concentration that equals or is greater than 25 μM was represented as)
5 | O=C(Cc1ccc(-n2c(=O)c3ccccc3n(Cc3ccccc3F)c2=O)cc1)NC1CC1 [Compound 232] | + (“+” equals >25 μM) | + (cell loss of greater than 50 percent at a concentration that equals or is greater than 25 μM was represented as)
6 | C=CCn1c(=O)c2ccc(C(=O)NCc3ccccc3)cc2n(Cc2ccc(C)cc2)c1=O [Compound 233] | + (“+” equals >25 μM) | + (cell loss of greater than 50 percent at a concentration that equals or is greater than 25 μM was represented as)
7 | O=C(NCc1ccco1)c1ccc2c(=O)n(-c3ccccc3)c(=O)n(Cc3cccc(F)c3)c2c1 [Compound 234] | ++ (“++” equals between ≤25 μM and >1 μM) | + (cell loss of greater than 50 percent at a concentration that equals or is greater than 25 μM was represented as)
8 | COc1ccc(-n2c(=O)c3ccccc3n(Cc3ccccc3F)c2=O)cc1 [Compound 235] | ++ (“++” equals between ≤25 μM and >1 μM) | + (cell loss of greater than 50 percent at a concentration that equals or is greater than 25 μM was represented as)
9 | COc1ccc(-n2c(=O)c3ccc(C(=O)NCCc4ccccc4)cc3n(Cc3cccc(F)c3)c2=O)cc1 [Compound 236] | ++ (“++” equals between ≤25 μM and >1 μM) | + (cell loss of greater than 50 percent at a concentration that equals or is greater than 25 μM was represented as)
10 | CCc1ccc(-n2c(=O)c3ccccc3n(Cc3cccc(F)c3)c2=O)cc1 [Compound 237] | ++ (“++” equals between ≤25 μM and >1 μM) | + (cell loss of greater than 50 percent at a concentration that equals or is greater than 25 μM was represented as)
11 | O=C(NCCc1ccccc1)c1ccc2c(=O)n(-c3ccccc3)c(=O)[nH]c2c1 [Compound 238] | + (“+” equals >25 μM) | + (cell loss of greater than 50 percent at a concentration that equals or is greater than 25 μM was represented as)
12 | Fc1cc(Nc2nc(-c3ccncc3)cc3ncccc23)cc2cc[nH]c12 [Compound 239] | ++ (“++” equals between ≤25 μM and >1 μM) | + (cell loss of greater than 50 percent at a concentration that equals or is greater than 25 μM was represented as)
13 | CC(C)c1nc2ccc(Nc3nc(-c4ccncc4)cc4ncccc34)cc2s1 [Compound 240] | +++ (“+++” equals ≤1 μM) | + (cell loss of greater than 50 percent at a concentration that equals or is greater than 25 μM was represented as)
14 | c1cnc2cc(-c3ccncc3)nc(Nc3ccc4nc(C5CC5)sc4c3)c2c1 [Compound 241] | +++ (“+++” equals ≤1 μM) | + (cell loss of greater than 50 percent at a concentration that equals or is greater than 25 μM was represented as)
15 | c1cnc2cc(-c3ccncc3)nc(Nc3ccc4[nH]ccc4c3)c2c1 [Compound 242] | +++ (“+++” equals ≤1 μM) | + (cell loss of greater than 50 percent at a concentration that equals or is greater than 25 μM was represented as)
16 | CC(C)(C)c1cc2cc(Nc3nc(-c4ccncc4)cc4ncccc34)ccc2[nH]1 [Compound 243] | +++ (“+++” equals ≤1 μM) | + (cell loss of greater than 50 percent at a concentration that equals or is greater than 25 μM was represented as)
17 | c1cnc2cc(-c3ccncc3)nc(Nc3ccc4[nH]c(C5CC5)cc4c3)c2c1 [Compound 244] | +++ (“+++” equals ≤1 μM) | + (cell loss of greater than 50 percent at a concentration that equals or is greater than 25 μM was represented as)
18 | Fc1cccc(Nc2nc(-c3ccncc3)cc3ncccc23)c1 [Compound 245] | +++ (“+++” equals ≤1 μM) | + (cell loss of greater than 50 percent at a concentration that equals or is greater than 25 μM was represented as)
19 | Fc1cc(Nc2nc(-c3ccncc3)cc3ncccc23)cc2sc(C3CC3)nc12 [Compound 246] | +++ (“+++” equals ≤1 μM) | + (cell loss of greater than 50 percent at a concentration that equals or is greater than 25 μM was represented as)
20 | c1cncc(-c2cc3ncccc3c(Nc3ccc4nc(C5CC5)sc4c3)n2)c1 [Compound 247] | ++ (“++” equals between ≤25 μM and >1 μM) | + (cell loss of greater than 50 percent at a concentration that equals or is greater than 25 μM was represented as)
21 | c1ccc(-c2cc3ncccc3c(Nc3ccc4nc(C5CC5)sc4c3)n2)nc1 [Compound 248] | ++ (“++” equals between ≤25 μM and >1 μM) | + (cell loss of greater than 50 percent at a concentration that equals or is greater than 25 μM was represented as)
22 | Fc1c(-c2ccncc2)nc(Nc2ccc3nc(C4CC4)sc3c2)c2cccnc12 [Compound 332] | +++ (“+++” equals ≤1 μM) | + (cell loss of greater than 50 percent at a concentration that equals or is greater than 25 μM was represented as)
23 | Cc1c(-c2ccncc2)nc(Nc2ccc3nc(C4CC4)sc3c2)c2cccnc12 [Compound 333] | +++ (“+++” equals ≤1 μM) | + (cell loss of greater than 50 percent at a concentration that equals or is greater than 25 μM was represented as)
24 | COc1ccc2nc(-c3ccncc3)nc(Nc3ccc4nc(C(C)C)sc4c3)c2c1 [Compound 352] | ++ (“++” equals between ≤25 μM and >1 μM) | + (cell loss of greater than 50 percent at a concentration that equals or is greater than 25 μM was represented as)
25 | COc1ccc2nc(-c3ccncc3)nc(Nc3ccc4nc(C(C)C)sc4c3)c2c1 [Compound 353] | ++ (“++” equals between ≤25 μM and >1 μM) | + (cell loss of greater than 50 percent at a concentration that equals or is greater than 25 μM was represented as)
26 | CC(C)c1nc2ccc(Nc3nc(-c4ccncc4)nc4ccc(F)cc34)cc2s1 [Compound 354] | + (“+” equals >25 μM) | + (cell loss of greater than 50 percent at a concentration that equals or is greater than 25 μM was represented as)
27 | CC(C)c1nc2ccc(Nc3nc(-c4ccncc4)nc4cc(F)ccc34)cc2s1 [Compound 355] | ++ (“++” equals between ≤25 μM and >1 μM) | + (cell loss of greater than 50 percent at a concentration that equals or is greater than 25 μM was represented as)
